Legend:
[1] = system: Monochoria vaginalis, Presl.; experiment: Preemergence weed control under flooded paddy conditions, MOOVA (Monochoria); assay type: in vivo; conditions: flooded paddy; for herbicidal effect rating, MOOVA / MOOVA herbicidal rating: preemergence; for MOOVA: preemergence weeds, herbicidal effect rating 0-9, three to four weeks after treatment; for herbicidal effect rating, MOOVA: meaning of each grade not given here
[2] = system: Oryza sativa, (L.) Tebonnet; experiment: Rice tolerance to post-transplant applications under flooded paddy conditions (Example 187), ORYSAT (Rice, Tebonnet); conditions: for herbicidal effect rating ORYSAT: rated 3-4 weeks after treatment; for ORYSAT: herbicidal effect rating 0-9, three to four weeks after treatment; for ORYSAT herbicidal rating (rice tolerance) / herbicidal effect rating, ORYSAT (rice tolerance): rated three to four weeks after treatment; for herbicidal effect rating ORYSAT: meaning of each grade not given here
[3] = system: Cyperus serotinus, Rottb.; experiment: Preemergence weed control under flooded paddy conditions, CYPSE (Flatsedge); assay type: in vivo; conditions: for herbicidal effect rating, CYPSE / CYPSE herbicidal rating: preemergence; for CYPSE: preemergence weeds, herbicidal effect rating 0-9, three to four weeks after treatment; for herbicidal effect rating, CYPSE: meaning of each grade not given here
[4] = system: Echinochloa oryzoides (Ard.) Fritsch.; experiment: Preemergence weed control under flooded paddy conditions, ECHORC (Watergrass (Calif.)); assay type: in vivo; conditions: flooded paddy; for herbicidal effect rating, ECHORC / ECHORC herbicidal rating: preemergence; for ECHORC: preemergence weeds, herbicidal effect rating 0-9, three to four weeks after treatment; for herbicidal effect rating, ECHORC: meaning of each grade not given here
Cyperus iria = experiment: Preemergence weed control under flooded paddy conditions, CYPIR (Rice Flatsedge); assay type: in vivo; conditions: flooded paddy; for herbicidal effect rating, CYPIR / CYPIR herbicidal rating: preemergence; for CYPIR: preemergence weeds, herbicidal effect rating 0-9, three to four weeks after treatment; for herbicidal effect rating, CYPIR: meaning of each grade not given here
Sagittaria pygmaea, L. = experiment: Preemergence weed control under flooded paddy conditions, SAGPY (Arrowhead (Pygmaea)); assay type: in vivo; conditions: flooded paddy; for herbicidal effect rating, SAGPY / SAGPY herbicidal rating: preemergence; for SAGPY: preemergence weeds, herbicidal effect rating 0-9, three to four weeks after treatment; for herbicidal effect rating, SAGPY: meaning of each grade not given here
[5] = Rate 0.0320 kg/ha, rated 3-4 weeks after treatment
[6] = Rate 0.0620 kg/ha, rated 3-4 weeks after treatment
[7] = Rate 0.1250 kg/ha, rated 3-4 weeks after treatment
[8] = Rate 0.2500 kg/ha, rated 3-4 weeks after treatment
[9] = Rate 0.5000 kg/ha, rated 3-4 weeks after treatment
[10] = 0.0320 kg/ha, rated three to four weeks after treatment
[11] = 0.0620 kg/ha, rated three to four weeks after treatment
[12] = 0.1250 kg/ha, rated three to four weeks after treatment
[13] = 0.2500 kg/ha, rated three to four weeks after treatment
[14] = 0.0313 kg/ha, rated three to four weeks after treatment
[15] = 0.0625 kg/ha, rated three to four weeks after treatment

Cc1ccc(OCC(=O)NS(=O)(=O)C(C)C)c(-c2nsc3ccc(-n4c(=O)cc(C(F)(F)F)n(C)c4=O)cc23)c1 [Example 560, Acetamide, 2-{{2-{5-[3,6-dihydro-3-methyl-2,6-dioxo-4-(trifluoromethyl)-1(2H)-pyrimidinyl]-1,2-benzisothiazol-3-yl}-p-tolyl}oxy}-N-(isopropylsulfonyl)-]
herbicidal effect rating, MOOVA [1, 5]: 8.0 | herbicidal effect rating, MOOVA [1, 6]: 9.0 | herbicidal effect rating, MOOVA [1, 7]: 9.0 | herbicidal effect rating, MOOVA [1, 8]: 9.0 | herbicidal effect rating, MOOVA [1, 9]: 9.0 | herbicidal effect rating ORYSAT ([2]; Rate 0.0320 kg/ha): 3.0 | herbicidal effect rating ORYSAT ([2]; Rate 0.0620 kg/ha): 3.0 | herbicidal effect rating ORYSAT ([2]; Rate 0.1250 kg/ha): 2.0 | herbicidal effect rating ORYSAT ([2]; Rate 0.2500 kg/ha): 4.0 | herbicidal effect rating ORYSAT ([2]; Rate 0.5000 kg/ha): 2.0 | herbicidal effect rating, CYPSE [3, 5]: 0.0 | herbicidal effect rating, CYPSE [3, 6]: 2.0 | herbicidal effect rating, CYPSE [3, 7]: 7.0 | herbicidal effect rating, CYPSE [3, 8]: 9.0 | herbicidal effect rating, CYPSE [3, 9]: 9.0 | herbicidal effect rating, ECHORC [4, 5]: 2.0 | herbicidal effect rating, ECHORC [4, 6]: 3.0 | herbicidal effect rating, ECHORC [4, 7]: 4.6 | herbicidal effect rating, ECHORC [4, 8]: 9.0 | herbicidal effect rating, ECHORC [4, 9]: 7.0 | herbicidal effect rating, CYPIR (Cyperus iria; [5]): 0.0 | herbicidal effect rating, CYPIR (Cyperus iria; [6]): 2.0 | herbicidal effect rating, CYPIR (Cyperus iria; [7]): 7.0 | herbicidal effect rating, CYPIR (Cyperus iria; [8]): 9.0 | herbicidal effect rating, CYPIR (Cyperus iria; [9]): 3.0 | herbicidal effect rating, SAGPY (Sagittaria pygmaea, L.; [5]): 0.0 | herbicidal effect rating, SAGPY (Sagittaria pygmaea, L.; [6]): 0.0 | herbicidal effect rating, SAGPY (Sagittaria pygmaea, L.; [7]): 0.0 | herbicidal effect rating, SAGPY (Sagittaria pygmaea, L.; [8]): 0.0 | herbicidal effect rating, SAGPY (Sagittaria pygmaea, L.; [9]): 0.0

C#CCOC(=O)COc1cc2c(cc1-c1nsc3ccc(-n4c(=O)cc(C(F)(F)F)n(C)c4=O)cc13)CCC2 [Example 436, Acetic acid, {{6-{5-[3,6-dihydro-3-methyl-2,6-dioxo-4-(trifluoromethyl)-1(2H)-pyrimidinyl]-1,2-benzisothiazol-3-yl}-5-indanyl}oxy}-, 2-propynyl ester]
MOOVA ([1]; 0.0320 kg/ha): 9.0 | MOOVA ([1]; 0.0620 kg/ha): 9.0 | MOOVA ([1]; 0.1250 kg/ha): 9.0 | MOOVA ([1]; 0.2500 kg/ha): 9.0 | ORYSAT ([2]; 0.0320 kg/ha): 3.0 | ORYSAT ([2]; 0.0620 kg/ha): 5.0 | ORYSAT ([2]; 0.1250 kg/ha): 7.0 | ORYSAT ([2]; 0.2500 kg/ha): 6.0 | CYPSE ([3]; 0.0320 kg/ha): 4.0 | CYPSE ([3]; 0.0620 kg/ha): 6.0 | CYPSE ([3]; 0.2500 kg/ha): 6.0 | ECHORC ([4]; 0.0320 kg/ha): 6.0 | ECHORC ([4]; 0.0620 kg/ha): 9.0 | ECHORC ([4]; 0.1250 kg/ha): 9.0 | ECHORC ([4]; 0.2500 kg/ha): 9.0 | CYPIR (Cyperus iria; 0.0320 kg/ha): 0.0 | CYPIR (Cyperus iria; 0.0620 kg/ha): 2.0 | CYPIR (Cyperus iria; 0.1250 kg/ha): 7.0 | CYPIR (Cyperus iria; 0.2500 kg/ha): 7.0 | SAGPY (Sagittaria pygmaea, L.; 0.0320 kg/ha): 0.0 | SAGPY (Sagittaria pygmaea, L.; 0.0620 kg/ha): 0.0 | SAGPY (Sagittaria pygmaea, L.; 0.1250 kg/ha): 2.0 | SAGPY (Sagittaria pygmaea, L.; 0.2500 kg/ha): 3.0

Cc1ccc(OC(C)(C)C(=O)O)c(-c2nsc3ccc(-n4c(=O)cc(C(F)(F)F)n(C)c4=O)cc23)c1 [Example 515, Propionic acid, 2-{{2-{5-[3,6-dihydro-3-methyl-2,6-dioxo-4-(trifluoromethyl)-1(2H)-pyrimidinyl]-1,2-benzisothiazol-3-yl}-p-tolyl}oxy}-2-methyl-]
MOOVA herbicidal rating [1, 10]: 9.0 | MOOVA herbicidal rating [1, 11]: 9.0 | MOOVA herbicidal rating [1, 12]: 9.0 | MOOVA herbicidal rating [1, 13]: 9.0 | ORYSAT herbicidal rating (rice tolerance) ([2]; 0.0320 kg/ha): 0.0 | ORYSAT herbicidal rating (rice tolerance) ([2]; 0.0620 kg/ha): 2.0 | ORYSAT herbicidal rating (rice tolerance) ([2]; 0.1250 kg/ha): 4.0 | ORYSAT herbicidal rating (rice tolerance) ([2]; 0.2500 kg/ha): 6.0 | CYPSE herbicidal rating [3, 10]: 0.0 | CYPSE herbicidal rating [3, 11]: 0.0 | CYPSE herbicidal rating [3, 12]: 0.0 | CYPSE herbicidal rating [3, 13]: 0.0 | ECHORC herbicidal rating [4, 10]: 2.0 | ECHORC herbicidal rating [4, 11]: 6.0 | ECHORC herbicidal rating [4, 12]: 8.0 | ECHORC herbicidal rating [4, 13]: 9.0 | CYPIR herbicidal rating (Cyperus iria; [10]): 0.0 | CYPIR herbicidal rating (Cyperus iria; [11]): 2.0 | CYPIR herbicidal rating (Cyperus iria; [12]): 4.0 | CYPIR herbicidal rating (Cyperus iria; [13]): 7.0 | SAGPY herbicidal rating (Sagittaria pygmaea, L.; [10]): 0.0 | SAGPY herbicidal rating (Sagittaria pygmaea, L.; [11]): 0.0 | SAGPY herbicidal rating (Sagittaria pygmaea, L.; [12]): 0.0 | SAGPY herbicidal rating (Sagittaria pygmaea, L.; [13]): 0.0

COC(=O)C(C)Oc1ccccc1Oc1noc2ccc(-n3c(=O)cc(C(F)(F)F)n(C)c3=O)cc12 (centres unmarked) [Example 47, Methyl 2-{o-{{5-[3,6-dihydro-3-methyl-2,6-dioxo-4-(trifluoromethyl)-1(2H)-pyrimidinyl]-1,2-benzisoxazol-3-yl}oxy}phenoxy}propionate]
herbicidal effect rating, MOOVA [1, 14]: 4.5 | herbicidal effect rating, MOOVA [1, 15]: 4.5 | herbicidal effect rating, MOOVA [1, 12]: 5.5 | herbicidal effect rating, MOOVA [1, 13]: 9.0 | herbicidal effect rating, ORYSAT (rice tolerance) ([2]; 0.0313 kg/ha): 1.5 | herbicidal effect rating, ORYSAT (rice tolerance) ([2]; 0.0625 kg/ha): 2.5 | herbicidal effect rating, ORYSAT (rice tolerance) ([2]; 0.1250 kg/ha): 4.0 | herbicidal effect rating, ORYSAT (rice tolerance) ([2]; 0.2500 kg/ha): 6.0 | herbicidal effect rating, CYPSE [3, 14]: 0.0 | herbicidal effect rating, CYPSE [3, 15]: 0.0 | herbicidal effect rating, CYPSE [3, 12]: 1.0 | herbicidal effect rating, CYPSE [3, 13]: 2.0 | herbicidal effect rating, ECHORC [4, 14]: 0.0 | herbicidal effect rating, ECHORC [4, 15]: 1.5 | herbicidal effect rating, ECHORC [4, 12]: 3.5 | herbicidal effect rating, ECHORC [4, 13]: 5.0 | herbicidal effect rating, CYPIR (Cyperus iria; [14]): 0.0 | herbicidal effect rating, CYPIR (Cyperus iria; [15]): 0.0 | herbicidal effect rating, CYPIR (Cyperus iria; [12]): 0.0 | herbicidal effect rating, CYPIR (Cyperus iria; [13]): 1.0 | herbicidal effect rating, SAGPY (Sagittaria pygmaea, L.; [14]): 0.0 | herbicidal effect rating, SAGPY (Sagittaria pygmaea, L.; [15]): 0.0 | herbicidal effect rating, SAGPY (Sagittaria pygmaea, L.; [12]): 0.0 | herbicidal effect rating, SAGPY (Sagittaria pygmaea, L.; [13]): 0.0

From patent EP0908457B1, “3-(1,2-benzisothiazol- and isoxazol-5-Y1)-2,4(1H,3H)-pyrimidinedione or thione and 3-(1,2-benzisothiazol- and isoxazol-5-y1)-4(3H)-pyrimidinone or thione herbicidal agents” (BASF AKTIENGESELLSCHAFT, priority 1997, dated 1999)
